Data: patent US6369034B1, “Functionalized alkyl and alenyl side chain derivatives of glycinamides as farnesyl transferase inhibitors” (Warner-Lambert Company, priority 1998, dated 2002)
Like-named read-outs stand apart in the source and are kept apart here.

Legend:
[1] = target: T1, SF9 affinity purified rat FPT (Rattus norvegicus, UniProt Q02293+Q04631); experiment: PFT inhibitory activity; assay type: biochemical; details: average of two tests
T1 construct: made in house; host or cells: Sf9 insect cells
Procedure: The protein:farnesyl transferase (PFT) or farnesyl protein transferase (FPT) inhibitory activity of compounds of the present invention were assayed in HEPES buffer (pH 7.4) containing 5 mM potassium phosphate and 20 μM ZnCl2. The solution also contained 5 mM DTT (dithiothreitol), 5 mM MgCl2, and 0.1% PEG 8000. Assays were performed in 96 well plates (Wallec) and employed solutions composed of varying concentrations of a compound of the present invention in 10% DMSO (dimethylsulfoxide). Upon addition of both substrates, radiolabeled farnesyl pyrophosphate ([1^3H], specific activity 15-30 Ci/mmol, final concentration 134 nM) and (biotinyl)-Ahe-Thr-Lys-Cys-Val-Ile-Met ([3aS[3a alpha, 4 beta, 6a alpha]-hexahydro-2-oxo-1H-thieno[3,4-d]imidazole-5-pentanoic acid]-[7-aminoheptanoic acid]-Thr-Lys-Cys-Val-Ile-Met) (Ahe is 7-aminoheptanoic acid, Thr is threonine, Lys is lysine, Cys is cysteine, Val is valine, Ile is isoleucine, and Met is methionine) (final concentration 0.2 4μM), the enzyme reaction was started by addition of SF9 affinity purified rat FPT. After incubation at 30° C. for 30 minutes, the reaction was terminated by diluting the reaction 2.5-fold with a stop buffer containing 1.5 M magnesium acetate, 0.2 M H3PO4, 0.5% BSA (bovine serum albumin), and strepavidin beads (Amersham) at a concentration of 1.3 mg/mL. After allowing the plate to settle for 30 minutes at room temperature, radioactivity was quantitated on a microBeta counter (Model 1450, Wallec). The assay was also carried out without 5 mM potassium phosphate.

[2] = test system: Ras protein in ras-transformed cells; experiment: Gel Shift Assay; assay type: cell-based; details: 18-hour incubation, read-out: Gel Shift (μM) MED
Procedure: Twenty-four hours after planting 2×10^6 ras-transformned cells per treatment condition, the farnesylation inhibitor is added at varying concentrations. Following an 18-hour incubation period, cells are lysed in phosphate-buffered saline containing 1% Triton X-100, 0.5% sodium deoxycholate, and 0.1% SDS (sodium dodecyl sulfate), pH 7.4 in the presence of several protease inhibitors (PMSF (phenylmethylsulfonylfluoride), antipain, leupeptin, pepstatin A, and aprotinin all at 1 μg/mL). Ras protein is immunoprecipitated from the supernatants by the addition of 3 μg v-H-ras Ab-2 (Y13-259 antibody from Oncogene Science). After overnight immunoprecipitation, 30 μL of a 50% protein G-Sepharose slurry (Pharmacia) is added followed by 45-minute incubation. Pellets are resuspended in 2×tris-glycine loading buffer (Novex) containing 5% mercaptoethanol and then denatured by 5 minutes boiling prior to electrophoresis on 14% Tris-glycine SDS gels. Using Western transfer techniques, proteins are transferred to nitrocellulose membranes followed by blocking in blocking buffer. Upon overnight incubation with primary antibody (pan-ras Ab-2 from Oncogene Science), an antimouse HRP (horse radish peroxidase) conjugate secondary antibody (Amersham) is employed for detection of the ras protein. Blots are developed using ECL(enhanced chemiluminescence) techniques (Amersham).

[3] = test system: mammary and salivary carcinomas; details: daily administration; ras transgenic mice; cited from earlier work
[4] = test system: human lung carcinoma with K-ras mutation and p53 deletion; details: nude mice; cited from earlier work
[5] = HEPES buffer pH 7.4, without 5 mM potassium phosphate, read-out: IC50 (μM) Hepes
[6] = HEPES buffer pH 7.4 containing 5 mM potassium phosphate, read-out: IC50 (μM) Hepes/5 mM KPO4^−2

| SMILES | IC50 [1, 5] | IC50 [1, 6] | minimal effective concentration [2] | tumor regression [3] | tumor growth [4] |
| --- | --- | --- | --- | --- | --- |
| C[C@H](c1ccccc1)N(CC(=O)NCC(C)(C)c1ccccc1)C(=O)[C@H](Cc1c[nH]cn1)NC(=O)OCc1ccccc1 [Example 2, Benzyl N-((1S)-1-(1H-4-imidazolylmethyl)-2-2-[(2-methyl-2-phenylpropyl)amino]-2-oxoethyl[(1R)-1-phenylethyl]amino-2-oxoethyl)carbamate] | 8.3 µM | 0.065 µM | 1 µM | – | – |
| C/C=C/CN(CC(=O)NCC(C)(C)c1ccccc1)C(=O)[C@H](Cc1c[nH]cn1)NC(=O)OCc1ccccc1 [Example 9, Benzyl N-[2-((E)-2-butenyl-2-[(2-methyl-2-phenylpropyl)amino]-2-oxoethylamino)-1-(1H-4-imidazolylmethyl1)-2-oxoethyl]carbamate] | 1.4 µM | 0.011 µM | 0.01 µM | – | – |
| CN(C)C(=O)CCN(CC(=O)NCC(C)(C)c1ccccc1)C(=O)C(Cc1cnc[nH]1)NC(=O)OCc1ccccc1 (centres unmarked) [Example 13, [1-{(2-Dimethylcarbamoyl-ethyl)-[(2-methyl-2-phenyl-propylcarbamoyl)-methyl]-carbamoyl}-2-(3H-imidazol-4-yl)ethyl]-carbamic acid benzyl ester] | 4 µM | 0.007 µM | – | – | – |
| COC(=O)CCN(CC(=O)NCC(C)(C)c1ccccc1)C(=O)[C@H](Cc1c[nH]cn1)NC(=O)OCc1ccccc1 [Example 4, Methyl 3-([(2S)-2-[(benzyloxy)carbonyl]amino-3-(1H-4-imidazolyl)propanoyl]-2-[(2-methyl-2-phenylpropyl)amino]-2-oxoethylamino)propanoate] | 5 µM | 0.018 µM | 0.1 µM | – | – |
| C[C@@H](c1ccccc1)N(CC(=O)NCC(C)(C)c1ccccc1)C(=O)[C@H](Cc1c[nH]cn1)NC(=O)OCc1ccccc1 [Example 1, Benzyl N-((1S)-1-(1H-4-imidazolylmethyl)-2-2-[(2-methyl-2-phenylpropyl)amino]-2-oxoethyl[(1S)-1-phenylethyl]amino-2-oxoethyl)carbamate] | 0.57 µM | 0.001 µM | 0.01 µM | – | – |
| CSCCN(CC(=O)NCC(C)(C)c1ccccc1)C(=O)C(Cc1cnc[nH]1)NC(=O)OCc1ccccc1 (centres unmarked) [Example 14, {2-(3H-Imidazol-4-yl)-1-[[(2-methyl-2-phenyl-propylcarbamoyl)-methyl]-(2-methylsulfanyl-ethyl)-carbamoyl]-ethyl}-carbamic acid benzyl ester] | 1.2 µM | 0.006 µM | 0.05 µM | – | – |
| CC(C)(CNC(=O)CN(CCC(=O)O)C(=O)[C@H](Cc1c[nH]cn1)NC(=O)OCc1ccccc1)c1ccccc1 [Example 5, 3-([(2S)-2-[(Benzyloxy)carbonyl]amino-3-(1H-4-imidazolyl)propanoyl]-2-[(2-methyl-2-phenylpropyl)amino]-2-oxoethylamino)propanoic acid] | 2.3 µM | < 0.001 µM | 1 µM | – | – |
| CC(OC(=O)NC(Cc1c[nH]cn1)C(=O)N(CC(=O)NCC(C)(C)c1ccccc1)Cc1ccc(OCc2ccccc2)cc1)c1ccccc1 (centres unmarked) [Example 10, [1-{(4-Benzyloxy-benzyl)-[(2-methyl-2-phenyl-propylcarbamoyl)-methyl]-carbamoyl}-2-(1H-imidazol-4-yl)-ethyl]-carbamic acid 1-phenyl-ethyl ester] | 0.25 µM | 0.004 µM | 0.01 µM | – | – |
| CC(C)(CNC(=O)CN(CCN1CCOCC1)C(=O)[C@H](Cc1c[nH]cn1)NC(=O)OCc1ccccc1)c1ccccc1 [Example 11, Benzyl N-(1S)-1-(1H-4-imidazolylmethyl)-2-[2-[(2-methyl-2-phenylpropyl)amino]-2-oxoethyl(2-morpholinoethyl)amino]-2-oxoethylcarbamate] | 2.1 µM | 0.016 µM | 0.2 µM | – | – |
| COCCN(CC(=O)NCC(C)(C)c1ccccc1)C(=O)C(Cc1cnc[nH]1)NC(=O)OCc1ccccc1 (centres unmarked) [Example 8, (2-(3H-Imidazol-4-yl)-1-{(2-methoxy-ethyl)-[(2-methyl-2-phenyl-propylcarbamoyl)-methyl]-carbamoyl}-ethyl)-carbamic acid benzyl ester] | 4.8 µM | 0.019 µM | 0.2 µM | – | – |
| CC(C)(CNC(=O)CN(CCN)C(=O)C(Cc1cnc[nH]1)NC(=O)OCc1ccccc1)c1ccccc1 (centres unmarked) [Example 6, [1-{(2-Amino-ethyl)-[(2-methyl-2-phenyl-propylcarbamoyl)-methyl]-carbamoyl}-2-(3H-imidazol-4-yl)-ethyl]-carbamic acid benzyl ester] | 36 µM | 0.072 µM | > 1 µM | – | – |
| CC[C@H](C)[C@@H](CO[C@@H](Cc1ccccc1)C(=O)N[C@@H](CCS(C)(=O)=O)C(=O)OC(C)C)NC[C@@H](N)CS [L-744,832] | – | – | – | caused tumor regression | – |
| CNCCN(CC(=O)NCC(C)(C)c1ccccc1)C(=O)[C@H](Cc1c[nH]cn1)NC(=O)OCc1ccccc1 [Example 7, Benzyl N-[(1S)-1-(1H-4-imidazolylmethyl)-2-([2-(methylamino)ethyl]-2-[(2-methyl-2-phenylpropyl)amino]-2-oxoethylamino)-2-oxoethyl]carbamate] | > 30 µM | 0.92 µM | – | – | – |
| CSCC[C@H](NC(=O)c1ccc(NC[C@@H](N)CS)cc1-c1ccccc1)C(=O)O [FT1276] | – | – | – | – | selectively block tumor growth |
| CC(C)(CNC(=O)CN(CC(C)(C)c1ccccc1)C(=O)[C@H](Cc1c[nH]cn1)NC(=O)OCc1ccccc1)c1ccccc1 [Example 3, Benzyl N-[(1S)-1-(1H-4-imidazolylmethyl)-2-((2-methyl-2-phenylpropyl)2-[(2-methyl-2-phenylpropyl)amino]-2-oxoethylamino)-2-oxoethyl]carbamate] | 0.098 µM | 0.001 µM | 0.01 µM | – | – |
| CC(C)OC(=O)CCN(CC(=O)NCC(C)(C)c1ccccc1)C(=O)[C@H](Cc1c[nH]cn1)NC(=O)OCc1ccccc1 [Example 12, 3-{[2-Benzyloxycarbonylamino-3-(3H-imidazol-4-yl)-propionyl]-[(2-methyl-2-phenyl-prolylcarbamoyl)-methyl]-amino}-propionic acid isopropyl ester] | 2.2 µM | 0.034 µM | – | – | – |
